The target of this assay is T1, SGK1 (Homo sapiens, UniProt O00141).
T1 sequence (O00141 1-431): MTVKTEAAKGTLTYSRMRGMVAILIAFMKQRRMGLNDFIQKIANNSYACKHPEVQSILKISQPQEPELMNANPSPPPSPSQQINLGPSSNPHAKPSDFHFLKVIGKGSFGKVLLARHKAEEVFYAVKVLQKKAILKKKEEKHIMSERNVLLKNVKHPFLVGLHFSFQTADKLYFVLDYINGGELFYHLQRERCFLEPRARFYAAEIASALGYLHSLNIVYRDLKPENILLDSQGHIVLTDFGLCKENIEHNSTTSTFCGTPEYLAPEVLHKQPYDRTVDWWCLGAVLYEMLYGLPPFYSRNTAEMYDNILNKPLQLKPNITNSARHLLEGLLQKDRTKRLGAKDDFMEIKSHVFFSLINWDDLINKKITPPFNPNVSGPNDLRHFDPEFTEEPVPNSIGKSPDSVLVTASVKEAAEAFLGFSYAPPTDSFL
Nature of the assay: SGK1 inhibition Assay B (Echo mass spectrometry of phosphorylated peptide product). In kind it is biochemical. Conditions: 60 min at room temperature.

SMILES strings stand for the structures. Where a name gives a salt, the structure may show the parent alone.

As a reminder, the IC50 is the concentration needed to halve the response being measured. Read a high IC50 as a need for much substance. `CCOC1=C(C(=O)N[C@@H]2CCCN(c3cc(C4=CCN(C(C)=O)C4)n4ncnc(N)c34)C2)CN(CC(F)(F)F)C1=O` [Example 759, (R)-N-(1-(7-(1-acetyl-2,5-dihydro-1H-pyrrol-3-yl)-4-aminopyrrolo[2,1-f][1,2,4]triazin-5-yl)piperidin-3-yl)-4-ethoxy-5-oxo-1-(2,2,2-trifluoroethyl)-2,5-dihydro-1H-pyrrole-3-carboxamide] had a concentration for half-maximal inhibition (IC50) of 887 nM.

Consider `CN1CCN(c2cccc(C(=O)N[C@@H]3CCCN(c4cc(-c5ccc6[nH]ncc6c5)n5ncnc(N)c45)C3)n2)CC1` [Example 806, (R)-N-(1-(4-amino-7-(1H-indazol-5-yl)pyrrolo[2,1-f][1,2,4]triazin-5-yl)piperidin-3-yl)-6-(4-methylpiperazin-1-yl)picolinamide], for which the IC50 was determined as 134 nM. For `CN1CCN(c2cccc(C(=O)N[C@@H]3CCCN(c4cc(-c5cnn(C(F)F)c5)n5ncnc(N)c45)C3)n2)CC1` [Example 807, (R)-N-(1-(4-amino-7-(1-(difluoromethyl)-1H-pyrazol-4-yl)pyrrolo[2,1-f][1,2,4]triazin-5-yl)piperidin-3-yl)-6-(4-methylpiperazin-1-yl)picolinamide, TFA salt], the half-inhibitory concentration (IC50) amounted to 41 nM. In turn, `CN1CCN(c2cccc(C(=O)N[C@@H]3CCCN(c4cc(-c5ccc(-n6cccn6)cc5)n5ncnc(N)c45)C3)n2)CC1` [Example 808, (R)-N-(1-(7-(4-(1H-pyrazol-1-yl)phenyl)-4-aminopyrrolo[2,1-f][1,2,4]triazin-5-yl)piperidin-3-yl)-6-(4-methylpiperazin-1-yl)picolinamide] registered a half-inhibitory concentration (IC50) of 34 nM. The value for `CC(=O)c1ccc(-c2cc(N3CCC[C@@H](NC(=O)c4cccc(N5CCN(C)CC5)n4)C3)c3c(N)ncnn23)cn1` [Example 809, (R)-N-(1-(7-(6-acetylpyridin-3-yl)-4-aminopyrrolo[2,1-f][1,2,4]triazin-5-yl)piperidin-3-yl)-6-(4-methylpiperazin-1-yl)picolinamide] was 80 nM. With `CN1CCN(c2cccc(C(=O)N[C@@H]3CCCN(c4cc(-c5ccc(F)c(F)c5)n5ncnc(N)c45)C3)n2)CC1` [Example 811, (R)-N-(1-(4-amino-7-(3,4-difluorophenyl)pyrrolo[2,1-f][1,2,4]triazin-5-yl)piperidin-3-yl)-6-(4-methylpiperazin-1-yl)picolinamide], the half-inhibitory concentration (IC50) came to 45 nM. For the compound `CC(C)N1CC2(CN(c3cccc(C(=O)N[C@@H]4CCCN(c5cc(-c6ccc(-n7cnnn7)c(F)c6)n6ncnc(N)c56)C4)n3)C2)C1` [Example 816, (R)-N-(1-(4-amino-7-(3-fluoro-4-(1H-tetrazol-1-yl)phenyl)pyrrolo[2,1-f][1,2,4]triazin-5-yl)piperidin-3-yl)-6-(6-isopropyl-2,6-diazaspiro[3.3]heptan-2-yl)picolinamide], half-maximal inhibition (IC50) required 6 nM.

The compound `CC(C)N1CC2(CN(c3cccc(C(=O)N[C@@H]4CCCN(c5cc(-c6ccc(C#N)nc6)n6ncnc(N)c56)C4)n3)C2)C1` [Example 817, (R)-N-(1-(4-amino-7-(6-cyanopyridin-3-yl)pyrrolo[2,1-f][1,2,4]triazin-5-yl)piperidin-3-yl)-6-(6-isopropyl-2,6-diazaspiro[3.3]heptan-2-yl)picolinamide] displayed a 50% inhibitory concentration (IC50) of 14 nM. As to `CC(C)N1CC2(CN(c3cccc(C(=O)N[C@@H]4CCCN(c5cc(-c6ccc(C#N)c(F)c6)n6ncnc(N)c56)C4)n3)C2)C1` [Example 818, (R)-N-(1-(4-amino-7-(4-cyano-3-fluorophenyl)pyrrolo[2,1-f][1,2,4]triazin-5-yl)piperidin-3-yl)-6-(6-isopropyl-2,6-diazaspiro[3.3]heptan-2-yl)picolinamide], the half-maximal inhibitory concentration (IC50) came to 3 nM. For `COC(=O)N1CC=C(c2cc(N3CCC[C@@H](NC(=O)c4cccc(N5CC6(C5)CN(C(C)C)C6)n4)C3)c3c(N)ncnn23)C1` [Example 819, methyl (R)-3-(4-amino-5-(3-(6-(6-isopropyl-2,6-diazaspiro[3.3]heptan-2-yl)picolinamido)piperidin-1-yl)pyrrolo[2,1-f][1,2,4]triazin-7-yl)-2,5-dihydro-1H-pyrrole-1-carboxylate], the midpoint of inhibition, the IC50, lay at 21 nM. The value for `CNC(=O)c1ccc(-c2cc(N3CCC[C@@H](NC(=O)c4cccc(N5CC6(C5)CN(C(C)C)C6)n4)C3)c3c(N)ncnn23)cn1` [Example 820] was 21 nM. Regarding `CC(C)N1CC2(CN(c3cccc(C(=O)N[C@@H]4CCCN(c5cc(-c6ccc7cnn(C)c7c6)n6ncnc(N)c56)C4)n3)C2)C1` [Example 821, (R)-N-(1-(4-amino-7-(1-methyl-1H-indazol-6-yl)pyrrolo[2,1-f][1,2,4]triazin-5-yl)piperidin-3-yl)-6-(6-isopropyl-2,6-diazaspiro[3.3]heptan-2-yl)picolinamide], 69 nM corresponded to half-maximal inhibition (IC50). Turning to `Cc1cc(-c2cc(N3CCC[C@@H](NC(=O)c4cccc(N5CC6(C5)CN(C(C)C)C6)n4)C3)c3c(N)ncnn23)ccc1-n1cnnn1` [Example 822], the 50% inhibitory concentration (IC50) was found to be 4 nM.

The compound `CC(C)N1CC2(CN(c3cccc(C(=O)N[C@@H]4CCCN(c5cc(-c6ccc(-n7cnnn7)c(F)c6F)n6ncnc(N)c56)C4)n3)C2)C1` [Example 823, (R)-N-(1-(4-amino-7-(2,3-difluoro-4-(1H-tetrazol-1-yl)phenyl)pyrrolo[2,1-f][1,2,4]triazin-5-yl)piperidin-3-yl)-6-(6-isopropyl-2,6-diazaspiro[3.3]heptan-2-yl)picolinamide] displayed an IC50 of 18 nM.

In turn, `CC(C)N1CC2(CN(c3cccc(C(=O)N[C@@H]4CCCN(c5cc(-c6ccc(-n7cnnn7)c(CO)c6)n6ncnc(N)c56)C4)n3)C2)C1` [Example 824, (R)-N-(1-(4-amino-7-(3-(hydroxymethyl)-4-(1H-tetrazol-1-yl)phenyl)pyrrolo[2,1-f][1,2,4]triazin-5-yl)piperidin-3-yl)-6-(6-isopropyl-2,6-diazaspiro[3.3]beptan-2-yl)picolinamide] displayed an IC50 of 10 nM. As for `CC(C)N1CC2(CN(c3cccc(C(=O)N[C@@H]4CCCN(c5cc(-c6cc(F)c(-n7cnnn7)cc6F)n6ncnc(N)c56)C4)n3)C2)C1` [Example 825, (R)-N-(1-(4-amino-7-(2,5-difluoro-4-(1H-tetrazol-1-yl)phenyl)pyrrolo[2,1-f][1,2,4]triazin-5-yl)piperidin-3-yl)-6-(6-isopropyl-2,6-diazaspiro[3.3]heptan-2-yl)picolinamide], the IC50 is 7 nM. `CC(C)N1CC2(CN(c3cccc(C(=O)N[C@@H]4CCCN(c5cc(-c6cc(F)c(-n7cnnn7)c(F)c6)n6ncnc(N)c56)C4)n3)C2)C1` [Example 826, (R)-N-(1-(4-amino-7-(3,5-difluoro-4-(1H-tetrazol-1-yl)phenyl)pyrrolo[2,1-f][1,2,4]triazin-5-yl)piperidin-3-yl)-6-(6-isopropyl-2,6-diazaspiro[3.3]heptan-2-yl)picolinamide]: the half-maximal inhibitory concentration (IC50) stood at 3 nM. The value for `COc1cc(-c2cc(N3CCC[C@@H](NC(=O)c4cccc(N5CC6(C5)CN(C(C)C)C6)n4)C3)c3c(N)ncnn23)ccc1-n1cnnn1` [Example 827, (R)-N-(1-(4-amino-7-(3-methoxy-4-(1H-tetrazol-1-yl)phenyl)pyrrolo[2,1-f][1,2,4]triazin-5-y1)piperidin-3-yl)-6-(6-isopropyl-2,6-diazaspiro[3.3]heptan-2-yl)picolinamide] was 7 nM; that for `CC(C)N1CC2(CN(c3cccc(C(=O)N[C@@H]4CCCN(c5cc(-c6cnc(-n7cnnn7)nc6)n6ncnc(N)c56)C4)n3)C2)C1` [Example 828, (R)-N-(1-(7-(2-(1H-tetrazol-1-yl)pyrimidin-5-yl)-4-aminopyrrolo[2,1-f][1,2,4]triazin-5-yl)piperidin-3-yl)-6-(6-isopropyl-2,6-diazaspiro[3.3]heptan-2-yl)picolinamide] was 25 nM; that for `Cc1nnnn1-c1ccc(-c2cc(N3CCC[C@@H](NC(=O)c4cccc(N5CC6(C5)CN(C(C)C)C6)n4)C3)c3c(N)ncnn23)cc1` [Example 829, (R)-N-(1-(4-amino-7-(4-(5-methyl-1H-tetrazol-1-yl)phenyl)pyrrolo[2,1-f][1,2,4]triazin-5-yl)piperidin-3-yl)-6-(6-isopropyl-2,6-diazaspiro[3.3]heptan-2-yl)picolinamide] was 2 nM. The compound `CC(C)N1CC2(CN(c3cccc(C(=O)N[C@@H]4CCCN(c5cc(-c6cnc(-n7cnnn7)c(F)c6)n6ncnc(N)c56)C4)n3)C2)C1` [Example 830, (R)-N-(1-(4-amino-7-(5-fluoro-6-(1H-tetrazol-1-yl)pyridin-3-yl)pyrrolo[2,1-f][1,2,4]triazin-5-yl)piperidin-3-yl)-6-(6-isopropyl-2,6-diazaspiro[3.3]heptan-2-yl)picolinamide] displayed an IC50 of 4 nM.

For `CC(=O)c1ccc(-c2cc(N3CCC[C@@H](NC(=O)c4cccc(N5CC6(C5)CN(C(C)C)C6)n4)C3)c3c(N)ncnn23)cn1` [Example 831, (R)-N-(1-(7-(6-acetylpyridin-3-yl)-4-aminopyrrolo[2,1-f][1,2,4]triazin-5-yl)piperidin-3-yl)-6-(6-isopropyl-2,6-diazaspiro[3.3]heptan-2-yl)picolinamide], the IC50 was 22 nM. As to `CC(C)N1CC2(CN(c3cccc(C(=O)N[C@@H]4CCCN(c5cc(-c6ccc(S(C)(=O)=O)cc6)n6ncnc(N)c56)C4)n3)C2)C1` [Example 832, (R)-N-(1-(4-amino-7-(4-(methylsulfonyl)phenyl)pyrrolo[2,1-f][1,2,4]triazin-5-yl)piperidin-3-yl)-6-(6-isopropyl-2,6-diazaspiro[3.3]heptan-2-yl)picolinamide], the 50% inhibitory concentration (IC50) came to 12 nM.

The values above are taken from patent US20260250290A1 (BRISTOL-MYERS SQUIBB COMPANY, priority 2023, published 2026).
